Results from patent publication US20080090845A1, “Haloalkyl-substituted pyrimidinone derivatives” (Neurogen Corporation, priority 2006, published 2008).

Biological target: T1, human capsaicin receptor (Homo sapiens, UniProt Q8NER1)
T1 construct: pBK-CMV expression construct encoding the full length human capsaicin receptor; expressed in transfected cells
Experiment: Calcium mobilization assay, determination of antagonist activity (Example 6)
Assay type: cell-based
Conditions: cells expressing human capsaicin receptor, capsaicin-induced fluorescence response; read-out: IC50
Description: A cDNA encoding full length human capsaicin receptor (SEQ ID NO:1, 2 or 3 of U.S. Pat. No. 6,482,611) is subcloned in the plasmid pBK-CMV (Stratagene, La Jolla, Calif.) for recombinant expression in mammalian cells.
Human embryonic kidney (HEK293) cells are transfected with the pBK-CMV expression construct encoding the full length human capsaicin receptor using standard methods. The transfected cells are selected for two weeks in media containing G418 (400 μg/ml) to obtain a pool of stably transfected cells. Independent clones are isolated from this pool by limiting dilution to obtain clonal stable cell lines for use in subsequent experiments.
Cells transfected with expression plasmids (as described in Example 4) and thereby expressing human capsaicin receptor are seeded and grown to 70-90% confluency in FALCON black-walled, clear-bottomed 96-well plates (#3904, BECTON-DICKINSON, Franklin Lakes, N.J.). The culture medium is emptied from the 96 well plates and FLUO-3 AM calcium sensitive dye (Molecular Probes, Eugene, Oreg.) is added to each well (dye solution: 1 mg FLUO-3 AM, 440 μl DMSO and 440 μl 20% pluronic acid in DMSO diluted 1:250 in Krebs-Ringer HEPES (KRH) buffer (25 mM HEPES, 5 mM KCl, 0.96 mM NaH2PO4, 1 mM MgSO4, 2 mM CaCl2, 5 mM glucose, 1 mM probenecid, pH 7.4), 50 μl diluted solution per well). Plates are covered with aluminum foil and incubated at 37° C. for 1-2 hours in an environment containing 5% CO2. After the incubation, the dye is emptied from the plates, and the cells are washed once with KRH buffer, and resuspended in KRH buffer.
To measure the ability of a test compound to agonize or antagonize a calcium mobilization response in cells expressing capsaicin receptors to capsaicin or other vanilloid agonist, the EC50 of the agonist capsaicin is first determined. An additional 20 μl of KRH buffer and 1 μl DMSO is added to each well of cells, prepared as described above. 100 μl capsaicin in KRH buffer is automatically transferred by the FLIPR instrument to each well. Capsaicin-induced calcium mobilization is monitored using either FLUOROSKAN ASCENT (Labsystems; Franklin, Mass.) or FLIPR (fluorometric imaging plate reader system; Molecular Devices, Sunnyvale, Calif.) instruments. Data obtained between 30 and 60 seconds after agonist application are used to generate an 8-point concentration response curve, with final capsaicin concentrations of 1 nM to 3 μM. KALEIDAGRAPH software (Synergy Software, Reading, Pa.) is used to fit the data to the equation: y=a*(1/(1+(b/x)^c)) to determine the 50% excitatory concentration (EC50) for the response. In this equation, y is the maximum fluorescence signal, x is the concentration of the agonist or antagonist (in this case, capsaicin), a is the Emax, b corresponds to the EC50 value and c is the Hill coefficient. Determination of Agonist Activity
Test compounds are dissolved in DMSO, diluted in 20 μl KRH buffer so that the final concentration of test compounds in the assay well is between 1 μM and 5 μM, and added to cells prepared as described above. The 96 well plates containing prepared cells and test compounds are incubated in the dark, at room temperature for 0.5 to 6 hours. It is important that the incubation not continue beyond 6 hours. Just prior to determining the fluorescence response, 100 μl capsaicin in KRH buffer at twice the EC50 concentration determined as described above is automatically added by the FLIPR instrument to each well of the 96 well plate for a final sample volume of 200 μl and a final capsaicin concentration equal to the EC50. The final concentration of test compounds in the assay wells is between 1 μM and 5 μM. […] The concentration of antagonist required to provide a 50% decrease, relative to the response observed in the presence of capsaicin and without antagonist, is the IC50 for the antagonist, and is preferably below 1 micromolar, 100 nanomolar, 10 nanomolar or 1 nanomolar.

T1 sequence (Q8NER1 whole entry): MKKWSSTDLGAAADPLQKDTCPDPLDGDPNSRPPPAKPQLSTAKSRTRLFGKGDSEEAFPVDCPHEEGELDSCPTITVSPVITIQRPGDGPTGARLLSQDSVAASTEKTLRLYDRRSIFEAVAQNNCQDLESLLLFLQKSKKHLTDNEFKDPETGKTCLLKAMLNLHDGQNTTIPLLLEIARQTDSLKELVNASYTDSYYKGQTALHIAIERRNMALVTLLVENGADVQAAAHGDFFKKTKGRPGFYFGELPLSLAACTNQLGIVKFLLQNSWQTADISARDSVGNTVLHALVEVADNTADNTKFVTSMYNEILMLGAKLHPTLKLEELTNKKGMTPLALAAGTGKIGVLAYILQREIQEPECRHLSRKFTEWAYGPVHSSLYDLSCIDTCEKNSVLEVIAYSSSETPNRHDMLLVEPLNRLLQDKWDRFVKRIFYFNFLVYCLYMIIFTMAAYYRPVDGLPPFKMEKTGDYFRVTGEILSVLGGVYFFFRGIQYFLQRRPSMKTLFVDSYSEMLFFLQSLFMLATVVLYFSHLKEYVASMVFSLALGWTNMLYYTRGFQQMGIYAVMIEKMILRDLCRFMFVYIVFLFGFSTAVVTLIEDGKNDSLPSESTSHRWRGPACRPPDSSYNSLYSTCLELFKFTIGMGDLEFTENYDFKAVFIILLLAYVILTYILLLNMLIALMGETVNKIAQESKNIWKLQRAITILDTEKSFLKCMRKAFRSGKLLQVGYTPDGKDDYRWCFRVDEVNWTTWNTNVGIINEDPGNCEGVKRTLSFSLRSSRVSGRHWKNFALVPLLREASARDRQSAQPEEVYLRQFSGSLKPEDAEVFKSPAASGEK

SMILES | IC50
CC(Cc1nc2c(ncn2CC(F)(F)F)c(=O)n1-c1ccc(Cl)cc1)C(F)(F)F (stereo not drawn) [Compound 24, 1-(4-chlorophenyl)-9-(2,2,2-trifluoroethyl)-2-(3,3,3-trifluoro-2-methylpropyl)-1,9-dihydro-6H-purin-6-one] | ≤ 100 nM
CC(Cc1nc2c(ncn2C)c(=O)n1-c1ccc(C#N)cc1)C(F)(F)F (stereo not drawn) [Compound 37, 4-[9-methyl-6-oxo-2-(3,3,3-trifluoro-2-methylpropyl)-6,9-dihydro-1H-purin-1-yl]benzonitrile] | ≤ 100 nM
CC(CCc1nc2c(ncn2C)c(=O)n1-c1ccc(C#N)cc1)C(F)(F)F (stereo not drawn) [Compound 28, 4-[9-methyl-6-oxo-2-(4,4,4-trifluoro-3-methylbutyl)-6,9-dihydro-1H-purin-1-yl]benzonitrile] | ≤ 100 nM
CC(Cc1nc2c(ncn2C2CC2)c(=O)n1-c1ccc(Cl)cc1)CC(F)(F)F (stereo not drawn) [Compound 15, 1-(4-chlorophenyl)-9-cyclopropyl-2-(4,4,4-trifluoro-2-methylbutyl)-1,9-dihydro-6H-purin-6-one] | ≤ 100 nM
C[C@H](CCc1nc2c(ncn2C)c(=O)n1-c1ccc(Cl)cc1)C(F)(F)F [Compound 33, 1-(4-chlorophenyl)-9-methyl-2-[(3R)-4,4,4-fluoro-3-methylbutyl]-1,9-dihydro-6H-purin-6-one] | ≤ 100 nM
CC(Cc1nc2c(ncn2C)c(=O)n1-c1ccc(Cl)cc1)CC(F)(F)F (stereo not drawn) [Compound 12, 1-(4-chlorophenyl)-9-methyl-2-(4,4,4-trifluoro-2-methylbutyl)-1,9-dihydro-6H-purin-6-one] | ≤ 100 nM
CCn1cnc2c(=O)n(-c3ccc(C#N)cc3)c(CC(C)C(F)(F)F)nc21 (stereo not drawn) [Compound 36, 4-[9-ethyl-6-oxo-2-(3,3,3-trifluoro-2-methylpropyl)-6,9-dihydro-1H-purin-1-yl]benzonitrile] | ≤ 100 nM
CC(Cc1nc2c(ncn2CC(F)F)c(=O)n1-c1ccc(Cl)cc1)C(F)(F)F (stereo not drawn) [Compound 22, 1-(4-chlorophenyl)-9-(2,2-difluoroethyl)-2-(3,3,3-trifluoro-2-methylpropyl)-1,9-dihydro-6H-purin-6-one] | ≤ 100 nM
CCn1cnc2c(=O)n(-c3ccc(Cl)cc3)c(CCC(C)C(F)(F)F)nc21 (stereo not drawn) [Compound 16, 1-(4-chlorophenyl)-9-ethyl-2-(4,4,4-trifluoro-3-methylbutyl)-1,9-dihydro-6H-purin-6-one] | ≤ 100 nM
CC(Cc1nc2c(ncn2CC(F)(F)F)c(=O)n1-c1ccc(Cl)cc1)CC(F)(F)F (stereo not drawn) [Compound 20, 1-(4-chlorophenyl)-9-(2,2,2-trifluoroethyl)-2-(4,4,4-trifluoro-2-methylbutyl)-1,9-dihydro-6H-purin-6-one] | ≤ 100 nM
CC(Cc1nc2c(ncn2C)c(=O)n1-c1ccc(F)cc1)CC(F)(F)F (stereo not drawn) [Compound 14, 1-(4-fluorophenyl)-9-methyl-2-(4,4,4-trifluoro-2-methylbutyl)-1,9-dihydro-6H-purin-6-one] | ≤ 100 nM
CCn1cnc2c(=O)n(-c3ccc(C#N)cc3)c(CC(C)CC(F)(F)F)nc21 (stereo not drawn) [Compound 31, 4-[9-ethyl-6-oxo-2-(4,4,4-trifluoro-2-methylbutyl)-6,9-dihydro-1H-purin-1-yl]benzonitrile] | ≤ 100 nM
CCn1cnc2c(=O)n(-c3ccc(Cl)cc3)c(CC(C)CC(F)(F)F)nc21 (stereo not drawn) [Compound 11, 1-(4-chlorophenyl)-9-ethyl-2-(4,4,4-trifluoro-2-methylbutyl)-1,9-dihydro-6H-purin-6-one] | ≤ 100 nM
CC(Cc1nc2c(ncn2C)c(=O)n1-c1ccc(C#N)cc1)CC(F)(F)F (stereo not drawn) [Compound 29, 4-[9-methyl-6-oxo-2-(4,4,4-trifluoro-2-methylbutyl)-6,9-dihydro-1H-purin-1-yl]benzonitrile] | ≤ 100 nM
CC(CCc1nc2c(ncn2CC(F)F)c(=O)n1-c1ccc(F)cc1)C(F)(F)F (stereo not drawn) [Compound 27, 9-(2,2-difluoroethyl)-1-(4-fluorophenyl)-2-(4,4,4-trifluoro-3-methylbutyl)-1,9-dihydro-6H-purin-6-one] | ≤ 100 nM
